TGI data for 11 compounds are collected here from PubChem BioAssay (NCI).

Common to all, as to test: growth of human tumour cells (NCI), 48 h
Experiment [1] relates to PC-3 prostate.
Experiment [2] concerns RPMI-8226 leukemia.
Experiment [3] concerns MDA-MB-231 breast.
Experiment [4] relates to SK-MEL-5 melanoma.
The subject of experiment [5] is A549 NSCLC.
Experiment [6] has as its system SK-MEL-2 melanoma.
The subject of experiment [7] is CAKI-1 renal.
Experiment [8] relates to HOP-62 NSCLC.
Experiment [9] deals with RXF 393 renal.
For experiment [10], the system named is SK-MEL-28 melanoma.
Experiment [11] deals with SW-620 colon.
Experiment [12] relates to OVCAR-8 ovarian.

Each structure is given as a SMILES string.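 Where inhibition never reached the appropriate level, the endpoint shown equals the highest concentration tested. Otherwise, values were interpolated linearly from a five-concentration, 48-hour dose response in 96-well plates. TGI marks complete inhibition of growth.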

Consider `O=[N+]([O-])c1ccc2nc(/C=C(\O)c3ccc(F)cc3)c(/C=C(\O)c3ccc(F)cc3)nc2c1`, for which the TGI in experiment [1] was over 100 µM; in [2] it was over 100 µM; in [3], 69.6 µM; in experiment [4], over 100 µM; in [5], over 100 µM; in experiment [6], 45.2 µM. In addition, the TGI is over 100 µM in [7]; 31.7 µM in experiment [8]; 40.7 µM in experiment [9]; over 100 µM in experiment [10]; over 100 µM in [11]; over 100 µM in experiment [12].
For the compound `Cc1cccc(NC(=S)N=Nc2c(O)[nH]c3ccccc23)c1`, the TGI in [1], in experiment [2], in experiment [3], in [4], in [5] and in experiment [6] was over 100 µM throughout. Further, the TGI in experiment [7], in [8], in [9], in experiment [10], in experiment [11] and in [12] was over 100 µM each time.
With `Cn1c2ccccc2c(=NNc2ccc(C(=O)O)cc2)c2ccccc21`, the TGI in experiment [1] was 43.9 µM; in experiment [2], 53.1 µM; in [3] it was 50.1 µM; in experiment [4], 32.7 µM; in experiment [5], 38.7 µM; in experiment [6], 40.7 µM. The TGI in experiment [7] came out at 63.4 µM; in [8] it was 56.2 µM; in experiment [9] it was 38 µM; in experiment [10], 60.7 µM; in [11], 65.3 µM; in [12], 33.5 µM.
For the compound `O=[N+]([O-])c1cccnc1NCC1(CO)CC(Cc2ccccc2)C1` (configuration not stated), the TGI in experiment [1], in experiment [2], in [3], in experiment [4], in [5] and in experiment [6] was over 100 µM throughout. Moreover, the TGI in [7], in [8], in experiment [9], in experiment [10], in experiment [11] and in experiment [12] was over 100 µM throughout.
As to `N/C(=N/n1c(=S)[nH]c2ccccc2c1=O)Nn1c(=S)[nH]c2ccccc2c1=O`, the TGI in experiment [1] was over 100 µM; in experiment [2] it was 57.5 µM; in [3], over 100 µM; in experiment [4], over 100 µM; in [5], over 100 µM; in experiment [6], over 100 µM. In addition, the TGI is 26.3 µM in experiment [7]; 93.1 µM in experiment [8]; over 100 µM in experiment [9]; 72.6 µM in experiment [10]; 38.6 µM in experiment [11]; over 100 µM in [12].
On to `Cn1c(-c2cccs2)cc(-c2cccs2)c1-c1ccsc1`, for which the TGI in [1] is over 100 µM; in [2], over 100 µM; in experiment [3], over 100 µM; in experiment [4] it was over 100 µM; in experiment [5], over 100 µM; in experiment [6], 98.1 µM. The TGI in [7], in [8], in experiment [9], in experiment [10], in experiment [11] and in [12] was over 100 µM in each case.
With `CSC1=C(c2ccc(Cl)cc2)SC(N2CCCCC2)N1c1ccc([N+](=O)[O-])cc1` (configuration not stated), the TGI in experiment [1] is 63.4 µM; in experiment [2], 45.2 µM; in [3] it was 77.1 µM; in [4], 29.9 µM; in experiment [5] it was over 100 µM; in experiment [6], 54.3 µM. Moreover, the TGI in experiment [7] is over 100 µM; in experiment [8], 41.8 µM; in experiment [9], over 100 µM; in experiment [10], over 100 µM; in experiment [11], over 100 µM; in experiment [12], 93.7 µM.
For `CNC(=S)N/N=C/c1cccc(C)n1`, the TGI is over 100 µM in experiment [1]; over 100 µM in [2]; over 89 µM in [3]; over 74.9 µM in [4]; over 100 µM in experiment [5]; over 100 µM in [6]. The TGI is over 100 µM in experiment [7]; 46.7 µM in experiment [8]; 97.4 µM in [9]; over 100 µM in experiment [10]; over 100 µM in [11]; over 75.7 µM in experiment [12].
For `CC1C[C@]2(C)C(=O)N(c3ccccc3)C(=N)[C@@H]2N(C)c2ccccc21` (some centres not stated), the TGI in experiment [1], in [2], in experiment [3], in [4], in [5] and in [6] was over 100 µM in each case. Moreover, the TGI in experiment [7], in experiment [8], in experiment [9], in [10], in experiment [11] and in [12] was over 100 µM throughout.
With `COc1ccc(N=C(Nc2ccc(OC)cc2)C(=Nc2ccc(OC)cc2)Nc2ccc(OC)cc2)cc1`, the TGI in experiment [1], in experiment [2], in experiment [3], in experiment [4], in experiment [5] and in experiment [6] was over 100 µM throughout. The TGI in experiment [7], in [8], in [9], in experiment [10], in experiment [11] and in experiment [12] was over 100 µM in each case.
As for `COc1ccc2c3c1OC1c4[nH]c5ccccc5c4CC4(O)C(C2)N(C)CCC314` (configuration not stated), the TGI in experiment [1] is over 100 µM; in experiment [2], 45.9 µM; in experiment [3] it was 77.4 µM; in experiment [4], 29.5 µM; in [5], over 100 µM; in experiment [6], 39.5 µM. The TGI in [7] was over 100 µM; in experiment [8], over 100 µM; in experiment [9] it was 50.8 µM; in experiment [10], 34.5 µM; in experiment [11], over 100 µM; in experiment [12], over 100 µM.
